Experiments:
[1] = tested on: ACE in serum; details: HFFD rats; cited from earlier work
Experimental: Biosurfactants’ inhibitory activity was analyzed in vitro as well as in vivo, using an animal model, in the work of Zouari et al.. […] Moreover, the administration of B. subtilis SPB1 lipopeptides or atorvastatin in vivo, to hypercaloric high-fat–high-fructose diet (HFFD) rats, decr ...

[2] = tested on: angiotensin-converting enzyme (ACE); test: ACE-inhibitory activity assay; format: biochemical
Experimental: The ACE-inhibitory activity assay was performed according to Udenigwe and Aluko [56] and quantified by a regression analysis of ACE-inhibitory activity (%) versus surfactin concentration. The IC50 value, i.e., the surfactin concentration (µg/mL) that causes 50% inhibition of ACE activity, was determined. The assay was carried out in triplicate.

[3] = ABTS radical cation assay (TEAC)
Experimental: (§1) The surfactin antioxidant activity was measured using ABTS, DPPH and FRAP assays. Each measurement was performed in triplicate. The ABTS assay was conducted according to Re et al.. In the first instance, radical cation (ABTS^•+) solution was prepared by mixing 7 mM ABTS stock solution (Sigma-Aldrich) with 2.45 mM potassium persulfate solution (Sigma-Aldrich). The mixture was incubated in the dark at room temperature for 12–16 h. Then, the reagent absorbance was adjusted to 0.7 (±0.02) at 734 nm, using distilled water as a blank. The antioxidant activity of the biosurfactant was determined by mixing 10 μL of surfactin (1 mg/mL) with 990 μL of ABTS^•+ solution. The absorbance was measured after 5 min incubation in the dark, using the Spark multimode microplate leader (Tecan Group Ltd., Männedorf, Switzerland), at 734 nm. The standard curve was prepared for Trolox ethanol solution (Sigma-Aldrich, St. Louis, MO, USA) in the range of 0–2000 μM. The activity of surfactin was expressed as the Trolox equivalent antioxidant capacity (TEAC [µM/g]).

[4] = Ferric reducing antioxidant power (FRAP, TEAC)
Experimental: as §1
Finally, the FRAP assay was conducted according to Benzie et al.. The reaction, performed at pH = 3.6, involved the reduction of Fe^3+ to Fe^2+ in the presence of 2,4,6-trypyridyl-s-triazine, followed by the formation of a colored complex. […]

[5] = DPPH free radical scavenging (TEAC)
Experimental: as §1, with “The standard curve was prepared for Trolox ethanol solution (Sigma-Aldrich, St. Louis, MO, USA) in the range of 0–2000 μM.” left out
In addition, the antioxidant activity of surfactin, expressed as the ability to scavenge DPPH free radicals, was investigated according to Xu et al.. […] The sample was centrifuged (12000 rpm) and the absorbance was measured using the Spark multimode microplate leader (Tecan Group Ltd., Männedorf, Switzerland) at 517 nm. The antioxidant activity of surfactin was expressed as Trolox equivalent (TEAC [µM/g]). […]

Molecule | reduction in ACE activity [1] | ACE inhibition, in words [2] | IC50, ACE-inhibitory activity ([2]; regression of ACE-inhibitory activity (%) versus surfactin concentration, triplicate) | TEAC, ABTS ([3]; 10 μL surfactin (1 mg/mL) + 990 μL ABTS•+, 5 min in the dark, 734 nm, Trolox standard 0–2000 μM, triplicate) | antioxidant activity (ABTS), in words ([3]; surfactin 1 mg/mL) | TEAC, FRAP ([4]; 50 μL surfactin (1 mg/mL) + 150 μL working solution, pH 3.6, 10 min, room temperature, 593 nm, Trolox standard, triplicate) | antioxidant activity (FRAP), in words ([4]; surfactin 1 mg/mL) | TEAC, DPPH ([5]; 10 μL surfactin (1 mg/mL) + 190 μL 0.1 mM DPPH in ethanol, 30 min in the dark, 517 nm, Trolox standard 0–1000 μM, triplicate) | antioxidant activity (DPPH), in words ([5]; surfactin 1 mg/mL)
CC(C)c1c(C(=O)Nc2ccccc2)c(-c2ccccc2)c(-c2ccc(F)cc2)n1CC[C@@H](O)C[C@@H](O)CC(=O)O [atorvastatin] | 24% | – | – | – | – | – | – | – | –
surfactin | – | strong inhibitory effect against ACE activity | 620 ± 40 µg/mL | 3.77 ± 0.22 µM/g | trace antioxidant activity | 0.76 ± 0.096 µM/g | trace antioxidant activity | 11.67 ± 0.8 µM/g | trace antioxidant activity

Source: PMC9505973, “Sustainable Production of Biosurfactant from Agro-Industrial Oil Wastes by Bacillus subtilis and Its Potential Application as Antioxidant and ACE Inhibitor” (International Journal of Molecular Sciences, 2022)
